Patent US4540700A, “Treatment of diabetic complications with certain spiro-imidazolidine-diones” (Alcon Laboratories, Inc., priority 1984, dated 1985)
One block for each compound: values may come before it.

How the values were obtained:
[1] = system: galactitol levels in the lenses; assay: galactitol levels in lenses of galactose-fed rats at Day 32; format: in vivo, rat; parameters: average galactitol levels in lenses: unit not given here; details: for average galactitol levels in lenses: Day 32
Text: The compounds were formulated in ground Purina Rodent Laboratory Chow, Number 5001, containing 30% galactose.
The galactose control group (twelve rats, twenty-four eyes) were fed ground Purina Rodent Laboratory Chow, No. 5001 containing 30% by weight galactose. The six test compound groups (twelve rats, twenty-four eyes per group) were fed the same 30% galactose chow except that the chow was formulated to deliver […] of the indicated test compound (see Table IV).

[2] = system: nerve conduction velocities of the sciatic nerve; assay: Nerve conduction study in diabetic rats; format: in vivo, male albino rats; details: for nerve conduction velocity as a percent of normal, first inflection / nerve conduction velocity as a percent of normal, first peak / nerve conduction velocity as a percent of normal, second inflection / nerve conduction velocity as a percent of normal, second peak: 15 weeks
Procedure: (§1) The purpose is to evaluate the efficacy of the racemic 2-fluoro compound (L), an aldose reductase inhibitor, for inhibiting cataractogenesis and nerve conduction deficit in diabetic rats.
(§2) Diabetes was induced in male albino rats by the intravenous injection of 50 mg/kg streptozotocin. The diabetic state was verified by measuring the blood glucose level in each animal before and after injection. […] A fourth group consisted of non-diabetic and otherwise normal rats which remained untreated. Treatments were given once daily by oral […], and continued through the day prior to sacrifice of the animal.
(§3) Each animal was weighed on a weekly basis. Both lenses of each animal were examined by ophthalmoscope periodically and any cataractous changes were graded and noted. At the end of 15 weeks, each animal was anesthetized using pentobarbital and the nerve conduction velocities of the sciatic nerve were measured. After an animal was sacrificed, the sciatic nerve and other tissues and organs were taken, weighed, and frozen for future biochemical analyses.

[3] = system: cataractogenesis in diabetic rats; assay: cataractous changes in streptozotocin diabetic rats; format: in vivo, male albino rats; details: 15 weeks
Procedure: as §1, §2, §3
Cataractous changes were graded on a scale of 0 to 4; 0 denoting a normal looking lens with no changes and 4 denoting opacification involving the whole lens.

Human Aldose Reductase = Human Aldose Reductase (Homo sapiens, UniProt P15121); assay: Human Aldose Reductase Inhibition; format: biochemical; details: for activity against human aldose reductase as compared to rat aldose reductase: human vs rat; for more active against human aldose reductase than the Sarges resolved compound: relative to Sarges resolved
Rat Aldose Reductase = Rat Aldose Reductase (Rattus norvegicus, UniProt P07943); assay: Rat Aldose Reductase Inhibition; format: biochemical
Text: Biophysical Chemistry, 8 (1978) 81-85; P. F. Kador, L. O. Merola and J. H
Kinoshita Documenta Ophthamologica, 18 (1979) 117.

Structure (SMILES): O=C1NC(=O)C2(CCOc3ccc(F)cc32)N1 (racemic) [Sarges Racemic, dl-spiro-(6-fluorochroman-4,4'-imidazolidine)-2',5'-dione, reference compound]
average galactitol levels in lenses ([1]; 4 Mg/Kg/day): 9.238
average galactitol levels in lenses ([1]; 8 Mg/Kg/day): 9.107
nerve conduction velocity as a percent of normal, first inflection ([2]; 16 mg/kg once daily oral): 88.6%
nerve conduction velocity as a percent of normal, first peak ([2]; 16 mg/kg once daily oral): 83.9%
nerve conduction velocity as a percent of normal, second inflection ([2]; 16 mg/kg once daily oral): 82.4%
nerve conduction velocity as a percent of normal, second peak ([2]; 16 mg/kg once daily oral): 79.1%
prevention of lens opacification in diabetic rats ([3]; 16 mg/kg once daily oral, 30 lenses): all appeared normal

In vitro Aldose Reductase Inhibition (Human Aldose Reductase; 10^-5, human): 81
In vitro Aldose Reductase Inhibition (Human Aldose Reductase; 10^-6, human): 71
In vitro Aldose Reductase Inhibition (Human Aldose Reductase; 10^-7, human): 64
In vitro Aldose Reductase Inhibition (Human Aldose Reductase; 10^-8, human): 35
IC50 (Human Aldose Reductase; human): 52 nM
activity against human aldose reductase as compared to rat aldose reductase (Human Aldose Reductase): as active or more active
more active against human aldose reductase than the Sarges resolved compound (Human Aldose Reductase): 12 X
IC50 (Rat Aldose Reductase): 44 nM
Structure (SMILES): O=C1NC(=O)C2(N1)c1cc(F)ccc1-c1ccc(F)cc12 [M, Spiro-[2,7-difluorofluoren-9,4'-imidazolidine]-2',5'-dione]
average galactitol levels in lenses ([1]; 4 Mg/Kg/day): 2.560
potency relative to the 2-fluoro compound ([1]; 4 and 8 Mg/Kg/day): more potent
average galactitol levels in lenses ([1]; 8 Mg/Kg/day): 1.399

inhibition at 100 µM (Human Aldose Reductase; 10^-4, human, read-out: In vitro Aldose Reductase Inhibition): 100%
inhibition at 10 µM (Human Aldose Reductase; 10^-5, human, read-out: In vitro Aldose Reductase Inhibition): 88%
inhibition at 1 µM (Human Aldose Reductase; 10^-6, human, read-out: In vitro Aldose Reductase Inhibition): 81%
inhibition at 0.1 µM (Human Aldose Reductase; 10^-7, human, read-out: In vitro Aldose Reductase Inhibition): 53%
inhibition at 0.01 µM (Human Aldose Reductase; 10^-8, human, read-out: In vitro Aldose Reductase Inhibition): 18%
IC50 (Human Aldose Reductase; human): 91 nM
activity against human aldose reductase as compared to rat aldose reductase (Human Aldose Reductase): as active or more active
more active against human aldose reductase than the Sarges resolved compound (Human Aldose Reductase): 7 X
IC50 (Rat Aldose Reductase): 150 nM
Structure (SMILES): O=C1NC(=O)C2(N1)c1ccccc1-c1ccc(F)cc12 (racemic) [Compound L, dl-Spiro(2-fluorofluoren-9,4'-imidazolidine)-2',5'-dione]
average galactitol levels in lenses ([1]; 4 Mg/Kg/day): 6.274
average galactitol levels in lenses ([1]; 8 Mg/Kg/day): 5.074
nerve conduction velocity as a percent of normal, first inflection ([2]; 8 mg/kg once daily oral): 93.3%
nerve conduction velocity as a percent of normal, first peak ([2]; 8 mg/kg once daily oral): 88.2%
nerve conduction velocity as a percent of normal, second inflection ([2]; 8 mg/kg once daily oral): 87.4%
nerve conduction velocity as a percent of normal, second peak ([2]; 8 mg/kg once daily oral): 85.0%
statistical significance of improvement in nerve conduction ([2]; 8 mg/kg, by comparison to the untreated diabetic rats): significant
prevention of lens opacification in diabetic rats ([3]; 8 mg/kg once daily oral): effective in preventing opacification of the lens
